# Laboratory results as given in publication PMC10380841, “Synthesis, Characterization and Cytotoxic Evaluation of New Pyrrolo[1,2-b]pyridazines Obtained via Mesoionic Oxazolo-Pyridazinones” (International Journal of Molecular Sciences, 2023).
# Read-outs that look alike come from different tables or passages of the source.
# Experiments:
# [1] = tested on: LoVo colon adenocarcinoma cells; test: MTS cytotoxicity assay, LoVo; assay type: cell-based, human; settings: Homo sapiens
# Protocol: (§1) Therefore, the precursor acids 2a–c and corresponding pyrrolo[1,2-b]pyridazines 5a–c,f were tested for their potential cytotoxic activity. During the assays, increasing concentrations of the compounds, ranging from […], were added for 24 h or 48 h to cancer LoVo, SK-OV-3, MCF-7, and the reference HUVEC cells, previously cultured for 24 h in 96-well flat bottom plates. […] Then, MTS reagent was added, and cells were incubated for 4 h at 37 °C in a 5% CO2 humidified atmosphere. The absorbance values were spectrophotometrically read to a Dynex ELISA reader at λ = […].
# (§2) For the evaluation of the in vitro potential anti-proliferative effects of treatments with the new compounds under study against solid tumor-derived cells, several compound-mediated cytotoxicity assays were performed on three adherent tumor standardized cell lines, and normal human endothelial cells, used as control: the MCF-7 human breast adenocarcinoma and SK-OV-3 human ovary adenocarcinoma cell lines were provided from European Collection of Authenticated Cell Cultures (ECACC), while LoVo, human colorectal adenocarcinoma cell line, and HUVEC human umbilical vein endothelial cells were purchased from American Type Culture Collection (ATCC).
# (§3) Adherent cells were cultivated in DMEM/F12 medium added with 2 mM L-glutamine and 10% fetal bovine serum, 100 units/mL penicillin, 100 µg/mL streptomycin (Sigma Aldrich, St. Louis, MO, USA) and incubated at 37 °C in 5% CO2 humidified atmosphere. The stock solutions for cell treatments were prepared by dissolving the synthesized compounds in a minimum amount of DMSO. Working dilutions were prepared from the stock solutions in culture medium before each treatment assay. After 24 h, when cell cultures achieved around 70% confluence, treatments were applied for various periods of time with different concentrations of synthesized compounds or oncolytic drugs, used as positive controls.
# (§4) Therefore, cell cultures treated with the new compounds or oncolytic drugs for 24 h or 48 h were further subjected to a colorimetric cell viability method, the MTS assay. The absorbance of probes was read, data were calculated, and percentages of cell viability were assessed.
# (§5) The evaluation of the compound-induced cytotoxicity was made using the CellTiter 96 Aqueous One Solution Cell Proliferation Assay (Promega, Madison, WI, USA), a reagent that contains both MTS (3-(4,5-dimethylthiazol-2-yl)-5-(3-carboxymethoxyphenyl)-2-(4-sulfophenyl)-2H-tetrazolium, inner salt) and PES ([…], a cationic dye with high chemical stability that binds to MTS and forms a stable solution).
# (§6) Briefly, 1.5 × 10^4 cancer or normal cells were cultured in 100 µL/well for 24 h. After the culture supernatants were discarded, cells were treated for additional 24 h or 48 h with increasing concentrations of new compounds or oncolytic drugs. Following the specific treatments, in each well a volume of 20 µL of coloring mixture reagent of MTS and PES was added, and then the plates were incubated with mild agitation every 20 min for 4 h at 37 °C. The color developed during incubation was spectrophotometrically quantified at λ = 492 nm using a Dynex ELISA reader (DYNEX Technologies—MRS, Chantilly, VA, USA).
# (§7) Data were expressed as percentages of cell viability of the treated cells, and were calculated and compared to the untreated cells (considered 100% viable), using the formula:Cell viability (%) = (T − B)/(U − B) × 100 where T = absorbance of treated cells, U = absorbance of untreated cells, and B = absorbance of culture medium (blank), for λ = 492 nm.
# (§8) The cell viability data were expressed as the mean values ± standard deviations (SD) of three different experiments (n = 3). […] Moreover, a parallel experiment was performed in the absence of cells, with all the concentrations of the compounds being tested for their potential interference with MTS reagents; then, their absorbance values were extracted during calculations.
# [2] = tested on: SK-OV-3 ovary adenocarcinoma cells; test: MTS cytotoxicity assay, SK-OV-3; assay type: cell-based, human; settings: Homo sapiens
# Protocol: as §1, §2, §3, §4, §5, §6, §7, §8
# [3] = tested on: LoVo colon adenocarcinoma cells; test: MTS cytotoxicity assay, LoVo; assay type: cell-based; settings: Homo sapiens, read-out: cell viability
# Daphnia magna Straus = test: Daphnia magna toxicity assay; assay type: in vivo; settings: 48 h
# Protocol: (§9) Young organisms of Daphnia magna were selected according to their size from a parthenogenetic culture maintained in an artificial medium for 24 h before the bioassay. The determination was conducted in tissue culture plates with 12 wells (Greiner Bio-One, Monroe, NC, USA), with 10 organisms in each well, and a final volume of 3 mL per sample [65, 66]. As a negative control, DMSO was used at a concentration of 1%. All compounds were tested at six different concentration levels, ranging from 12.5 to 500 μg/mL. All assessments were performed in duplicate.
# [4] = Daphnia magna toxicity assay; assay type: in vivo; settings: Daphnia magna, in vivo; 48 h
# Protocol: as §9
# Triticum aestivum L. = test: Triticum test, phytotoxicity (main root length); assay type: in vivo; settings: Triticum aestivum, 72 h; Triticum root length, 10–1000 µM, measured over three days
# Protocol: Phytobiological testing (Triticum test) was performed by the Constantinescu method which consists in determining the maximum active dilution of a compound. Depending on the duration of action, it can influence root elongation and the […] film. […] Embryonic wheat roots were obtained by germinating homogeneous wheat caryopses in Linhart pots. Then the caryopses with a main root length of 1 cm were placed in the test solutions. For the determination of the action of each compound, five dilutions in the concentration range of 10–1000 µM were obtained and 11 caryopses were placed in them. Petri dishes containing 15 mL of diluted solution were kept under constant conditions of temperature (25 °C), and humidity (60%), in the absence of light. […] The results were expressed in comparison with a 1% DMSO control.
# Statistical analyses were performed using the computing and programming environment R, R, v. 4.2.1 [68], under Rstudio, v. 2022.07.2+576 “Spotted Wakerobin” for Windows (RStudio, PBC, Boston, 2022), both for the Triticum and Artemia tests. It used a parametric mixed-effects model (R package “lme4”) and a robust mixed-effects model (R package “robustlmm”), in which root length measurements (Triticum) from all three days were used as the dependent variable, whereas compound, concentration and time were treated as fixed effects, with time (day of measurement) also treated as a random effect. Assessing statistical significance for mixed-effects statistical models is controversial and complex, but as a pragmatic way of working, we have estimated p-values using the Kenward–Rogers approximation (R package “sjPlot”). A variety of R base functions and R packages were used to diagnose the regression models (“car” [72], “MASS” [73], and “gvlma” [74]). Mixed boxplot–dotplot plots were generated using the “ggplot2” package.
# The “drc” R package was used to estimate IC50 values for the Triticum bioassay by nonlinear modeling. For Triticum, the relationship between root length and concentration was modeled using Weibull functions with 2, 3, or 4 parameters, depending on the data distribution, the models being selected from a range of several models with different functions and parameters, based on the Akaike’s information criterion (AIC).
# [5] = tested on: MCF-7 breast adenocarcinoma cells; test: MTS cytotoxicity assay, MCF-7; assay type: cell-based, human; settings: Homo sapiens, MCF7; for viability at 200 µM: MCF-7, 200 μM; for viability at 200 µM / viability at 400 µM / viability at 40 µM: read-out: cell viability; for viability at 400 µM: MCF-7, 400 μM; for viability at 40 µM: MCF-7, 40 μM
# Protocol: as §1, §2, §3, §4
# as §5, with “solution). The assay is based on the ability of the metabolically active cells to reduce the yellow tetrazolium salt MTS to a compound that is soluble in culture medium, the colored formazan, followed by the spectrophotometric evaluation of its concentration.” for “solution).”
# as §6, §7
# The cell viability data were expressed as the mean values ± standard deviations (SD) of three different experiments (n = 3). […]
# [6] = tested on: SK-OV-3 ovary adenocarcinoma cells; test: MTS cytotoxicity assay, SK-OV-3; assay type: cell-based; settings: Homo sapiens, read-out: cell viability; for viability at 400 µM: SK-OV-3, 400 μM; for viability at 40 µM: SK-OV-3, 40 μM
# [7] = tested on: HUVEC human umbilical vein endothelial cells; test: MTS cytotoxicity assay, HUVEC normal cells; assay type: cell-based; settings: for cytotoxic effect on HUVEC: 24 h
# Protocol: as §1, §2, §3, §4, §5, §6, §7, §8
# [8] = MTS cytotoxicity assay, HUVEC normal cells; assay type: cell-based, human; settings: human, HUVEC human umbilical vein endothelial cells (normal cells), read-out: cell viability
# Protocol: as §1, §2, §3, §4, §5, §6, §7, §8
# Artemia nauplii = tested on: Artemia nauplii; design: method as in PMID 16445096; settings: at 24 and 48 h; cited from earlier work
# [9] = SK-OV-3, 24 h, read-out: IC50 Sk-OV-3 24 h
# [10] = SK-OV-3, 48 h, read-out: IC50 Sk-OV-3 48 h
# [11] = MCF-7, 48 h, read-out: IC50 MCF-7 48 h
# [12] = MCF-7, 24 h, read-out: IC50 MCF-7 24 h
structure (smiles),measurement,setting,value
"CCOC(=O)C(CC)n1nc(-c2ccccc2)ccc1=O (stereo not shown) [Compound 1a, Ethyl 2-(6-oxo-3-phenylpyridazin-1-yl)butanoate]",melting point,,56 to 58 °C
"CCOC(=O)C(CC)n1nc(-c2ccc(F)cc2)ccc1=O (stereo not shown) [Compound 1b, Ethyl 2-[6-oxo-3-(4-fluorophenyl)pyridazin-1-yl]butanoate]",melting point,,59 to 61 °C
"CCOC(=O)C(CC)n1nc(-c2ccc(Cl)cc2)ccc1=O (stereo not shown) [Compound 1c, Ethyl 2-[6-oxo-3-(4-chlorophenyl)pyridazin-1-yl]butanoate]",melting point,,49 to 51 °C
"CCC(C(=O)O)n1nc(-c2ccccc2)ccc1=O (stereo not shown) [Compound 2a, 2-(6-Oxo-3-phenylpyridazin-1-yl)butanoic acid]",IC50,"[1]; 24 h, read-out: IC50 LoVo 24 h",≥ 400 µM
same,IC50,"[1]; 48 h, read-out: IC50 LoVo 48 h",≥ 400 µM
same,IC50,[2]; [9],≥ 400 µM
same,IC50,[2]; [10],≥ 400 µM
same,viability at 200 µM,[3]; 48 h,82.9%
same,viability at 400 µM,[3]; 24 h,69.1%
same,viability at 400 µM,[3]; 48 h,60.8%
same,toxicity on Daphnia magna,Daphnia magna Straus,moderate toxicity
same,LC50 at 48 h,[4],521 µM
same,IC50,Triticum aestivum L.,213 µM
same,viability at 200 µM,[5]; 48 h,97%
same,viability at 400 µM,[5]; 48 h,94%
same,IC50,[5]; [11],≥ 400 µM
same,viability at 400 µM,[6]; 24 h,89.3%
same,viability at 400 µM,[6]; 48 h,85.1%
"O=c1[nH]cc(F)c(=O)[nH]1 [Compound 5-FU, 5-fluorouracil, reference compound]",IC50,"[1]; 24 h, read-out: IC50 LoVo 24 h",76.1 ± 3.09 µM
same,IC50,"[1]; 48 h, read-out: IC50 LoVo 48 h",66.2 ± 2.66 µM
same,viability at 200 µM,[3]; 24 h,42.3%
same,viability at 200 µM,[3]; 48 h,28.7%
same,cell viability,"[7]; 200 μM, 48 h",no significant effect
same,cytotoxic effect on HUVEC,[7],no remarkable cytotoxic effects
same,viability at 200 µM,[5]; 24 h,45.5%
same,viability at 200 µM,[5]; 48 h (drug control),18.2%
same,IC50,[5]; [12],80.6 ± 4.39 µM
same,IC50,[5]; [11],60.4 ± 5.04 µM
"CCOC(=O)c1cc(CC)n2nc(-c3ccccc3)ccc12 [Compound 5d, Ethyl 7-ethyl-2-phenylpyrrolo[1,2-b]pyridazine-5-carboxylate]",melting point,,99 to 101 °C
"CCOC(=O)c1cc(CC)n2nc(-c3ccc(Cl)cc3)ccc12 [Compound 5f, Ethyl 2-(4-chlorophenyl)-7-ethylpyrrolo[1,2-b]pyridazine-5-carboxylate]",IC50,"[1]; 24 h, read-out: IC50 LoVo 24 h",≥ 400 µM
same,IC50,"[1]; 48 h, read-out: IC50 LoVo 48 h",353 ± 4.1 µM
same,IC50,[2]; [9],≥ 400 µM
same,IC50,[2]; [10],≥ 400 µM
same,viability at 400 µM,[3]; 24 h,78.2%
same,viability at 400 µM,[3]; 48 h,41.8%
same,toxicity on Daphnia magna,Daphnia magna Straus,moderate toxicity
same,LC50 at 48 h,[4],428 µM
same,"viability at 24 h, 400 µM","[8]; 400 μM, 24 h",90%
same,"viability at 48 h, 400 µM","[8]; 400 μM, 48 h",91.6%
same,viability at 200 µM,[5]; 48 h,97%
same,viability at 400 µM,[5]; 48 h,94%
same,IC50,[5]; [11],≥ 400 µM
same,viability at 400 µM,[6]; 48 h,83%
"COc1cccc2c1C(=O)c1c(O)c3c(c(O)c1C2=O)C[C@@](O)(C(=O)CO)C[C@@H]3O[C@H]1C[C@H](N)[C@H](O)[C@H](C)O1 [DOX, doxorubicin, reference compound]",IC50,[2]; [9],55.4 ± 2.98 µM
same,IC50,[2]; [10],12.1 ± 0.32 µM
same,cytotoxic effect on HUVEC,[7],no remarkable cytotoxic effects
same,"viability at 48 h, 40 µM","[8]; 40 μM, 48 h",81.7%
same,viability at 40 µM,[5]; 24 h,41.8%
same,viability at 40 µM,[5]; 48 h,36.7%
same,IC50,[5]; [12],14.8 ± 4 µM
same,IC50,[5]; [11],11.6 ± 0.53 µM
same,viability at 40 µM,[6]; 24 h,68.6%
same,viability at 40 µM,[6]; 48 h,35.2%
"O=c1n(Cl)c(=O)n(Cl)c(=O)n1Cl [TCIC, trichloroisocyanuric acid]",LC50,Artemia nauplii,< 1 µM
"OC[P+](CO)(CO)CO [THPC, tetrakis(hydroxymethyl) phosphonium chloride]",LC50,Artemia nauplii,< 1 µM
